Measurements from EP0278673B1, “A benzoylurea derivative and its production and use” (priority 1987, dated 1988).

Columns and labels:
Format in all cases: in vivo
[1] = tested on: common mosquito (Culex pipiens pallens); test: Emergence inhibition test on last instar mosquito larvae (Test example 1); settings: 0.01 ppm in water; 20 last instar larvae bred until emergence; two replications
Procedure: The emulsifiable concentrates of the following test compounds obtained according to Formulation example 1 were each diluted with water to a concentration of 0.01 ppm. Thereafter, 100 ml of each dilute solution thus obtained was put in a 180-ml polyethylene cup, and 20 last instar larvae of common mosquito (Culex pipiens pallens) were liberated therein. The larvae were bred on a bait until emergence to obtain an emergence inhibitory ratio (two replications).

[2] = tested on: tobacco cutworm (Spodoptera litura); test: Mortality test on fourth instar larvae with treated artificial diet (Test example 2); settings: 50 ppm, 2 ml on 13 g artificial diet, after six days, two replications, 8640 min
Excerpt: The emulsifiable concentrates of the following test compounds obtained according to Formulation example 1 were each diluted with water to a concentration of 50 ppm. Two milliliters of each dilute solution thus obtained was applied onto 13 g of artificial diet for tobacco cutworm (Spodoptera litura) which were then put in a polyethylene cup of 11 cm in diameter. Then, ten fourth instar larvae of tobacco cutworm were liberated in the cup. After six days, the dead and alive were examined to obtain mortality (two replications).

[3] = tested on: carmine spider mite (Tetranychus cinnabarinus); test: Adult emergence inhibition test on sprayed deutonymphs (Test example 3); settings: 3 ml sprayed, after three days
Procedure: The emulsifiable concentrates of the following test compounds obtained according to Formulation example 1 were each diluted with water to a pre-determined concentration to obtain a dilute solution of each emulsifiable concentrate. From 20 to 60 deutonymphs of carmine spider mite (Tetranychus cinnabarinus) were transferred onto leaves in a petri dish, and 3 ml of the dilute solution was sprayed thereon. After three days, the number of the adults was counted to obtain an adult emergence inhibitory ratio.

[4] = tested on: carmine spider mite (Tetranchus cinnabarinus); test: Sterilization test on sprayed female adults, egg hatchability (Test example 4); settings: 100 ppm, 3 ml sprayed on female adults; oviposition three days; hatchability after six days at 27°C
Procedure: The emulsifiable concentrates of the following test compounds obtained according to Formulation example 1 were each diluted with water to a concentration of 100 ppm to obtain a dilute solution of each emulsifiable concentrate. Thirty female adults of carmine spider mite (Tetranchus cinnabarinus) were transferred onto a leaf in a petri dish, and 3 ml of the dilute solution was sprayed thereon. After air-drying, 18 female adults were transferred onto untreated leaves in a petri dish, and allowed to oviposit for three days. The eggs obtained were stored in a chamber controlled at 27°C in an artificial weather room. After six days, hatchability of the eggs was examined to obtain a sterilization ratio.

[5] = tested on: carmine spider mite (Tetranychus cinnabarinus); test: Degree of mite damage on potted kidney bean after spray and soil treatment (Test example 5); parameters: key: -: Little damage is observed.; +: Slight damage is observed.; ++: Same damage as in the untreated plot is observed; settings: 500 ppm, 10 ml sprayed on plant, 2 ml on pot soil, after 20 days
Procedure: Ten female adults of carmine spider mite (Tetranychus cinnabarinus) were transferred onto each leaf of potted kidney bean in a primary leaf stage, which had elapsed seven days after sowing, and stored in a constant-temperature room kept at 25°C. After six days, the emulsifiable concentrate of the following test compounds formulated according to Formulation example 1 was diluted with water so that the active ingredient concentration was 500 ppm. Ten milliliters of the dilute solution was sprayed onto the plant on a turn table by a spray gun, and 2 ml of the diluted solution was treated on the pot soil. After 20 days, the degree of damage of each kidney bean by mites was examined.
The degree of damage was classified into three stages, -, + and ++. - : Little damage is observed. + : Slight damage is observed. ++: Same damage as in the untreated plot is observed.

| SMILES | Emergence inhibitory ratio (%) [1] [%] | Mortality (%) [2] [%] | Concentration and adult emergence inhibitory ratio (%) 100 ppm [3] [%] | Sterilization ratio (%) [4] [%] | Concentration and adult emergence inhibitory ratio (%) 500 ppm ([3]; 500 ppm) [%] | Degree of damage [5] |
| --- | --- | --- | --- | --- | --- | --- |
| O=C(NC(=O)c1c(F)cccc1F)Nc1cc(Cl)c(Nc2ccc(OC(F)(F)C(F)F)cc2)c(Cl)c1 [(3), N-2,6-difluorobenzoyl-Nʹ-3,5-dichloro-4-[4-(1,1,2,2-tetrafluoroethoxy)anilino]phenylurea] | 100 | 100 | 91 | 95 |  |  |
| O=C(NC(=O)c1c(F)cccc1F)Nc1cc(Cl)c(Nc2ccc(OC(F)(F)F)cc2)c(Cl)c1 [(1), N-2,6-difluorobenzoyl-Nʹ-3,5-dichloro-4-[4-(trifluoromethoxy)anilino]phenylurea] | 100 | 100 | 100 | 98 | 94 | - |
